Legend:
[1] = system: peripheral blood mononuclear cells (PBMC); test: Mitogen-induced lymphocyte proliferation by PBMC, whole blood culture, dogs; type: in vivo, Beagle dogs
Method: Blood collected on weeks 0, 2, 4, 8 and 12 were used to assess mitogen-induced lymphocyte proliferation by peripheral blood mononuclear cells (PBMC). Whole blood culture was used in order to mimic in vivo conditions. Mitogens used were phytohemagglutinin (PHA), concanavalin A (Con A) and pokeweed mitogen (PWM). Whole blood was thoroughly mixed and then diluted 1:12 with RPMI-1640 containing 25 mM of Hepes, penicillin (100 U/mL) and streptomycin (100 μg/mL) (Sigma, St. Louis, Mo.). […] Triplicate 150 μL volumes were pipetted into 96-well round bottom plates and 50 μl of the appropriate mitogens added. The final concentrations of the mitogens in culture were 2 and 10 μg/mL for PHA, 1 and 5 μg/mL for Con A and 0.5 and 2.5 μg/mL for PWM. The two mitogen concentrations gave maximum (the higher mitogen concentration) and suboptimal (lower mitogen concentration) proliferative responses in preliminary studies using blood from similar animals. The mixture was incubated for 72 h at 37° C. in a humidified incubator under a 5% CO2 atmosphere. Four hours prior to the termination of the incubation period, 20 μL of [^3H]-thymidine (1 [μCi/well) were added. Cells were harvested onto fiberglass filters and radioactivity was counted by liquid scintillation. Proliferation response of PBMC was expressed as stimulation index (cpm of stimulated cultures/cpm of unstimulated cultures).

[2] = Body weight and food intake of cats fed lutein; type: in vivo, Tabby cats
Method: Fifty-six female Tabby cats (10 months old) were randomly assigned to be fed 0, 1, 5, or 10 mg lutein daily for 12 weeks. The lutein contained 76.66% lutein and 5.23% zeaxanthin and was incorporated into the basal diet (see Table 3) to a final concentration of 250 mg lutein/kg of diet.
(§1) Prior to being fed to the cats, the lutein-containing diet was mixed with additional basal diet to achieve the desired lutein concentration. The final diets were mixed weekly and stored at −20° C. in sealed containers undernitrogen gas. […] Food and water were available ad libitum. Cats were housed (7 cats/pen; 1.5×5.0 m) in a temperature (20 to 22° C.) and light (14 h light) controlled facility.

[3] = set-up: species or system Tabby cats; details: in vivo
Method: Blood was collected by jugular venipuncture into heparinized evacuated tubes on weeks 0, 2, 4, 8 and 12 and aliquots used for HPLC analysis and for assessing immune responses.
Plasma lutein, retinol and α-tocopherol were analyzed by reverse phase HPLC. Briefly, plasma protein was precipitated with an equal volume of ethanol containing 0.1% butylated hydroxytoluene (BHT) (Aldrich Chemical Co., Milwaukee, Wis.). The mixture was extracted with 5 mi of a 1:1 mixture of petroleum ether:anhydrous diethyl ether and the dried residue resuspended in mobile phase. The mobile phase was a mixture of acetonitrile, methanol and chloroform (47:47:6, v/v/v). The internal standard used was retinyl acetate (Sigma Chem. Co., St. Louis, Mo.). Samples were eluted on a 5 μm C18 reverse phase column (3.9×150 mm; Resolve, Millipore Corp., Milford Mass.) with a flow rate of 1.0 ml/min. The identity of the eluted compounds was verified by comparing their absorption spectra with those of standard compounds.

[4] = system: lymphocyte subsets (CD3, CD4, CD8, MHC class II, CD21); test: Lymphocyte subpopulations by flow cytometry, cats; type: in vivo, Tabby cats
Method: Blood leukocytes were separated on Histopaque-1119 (Sigma, St. Louis, Mo.) and cells washed three times with phosphate-buffered saline (PBS, pH 7.4). Contaminating RBC were lysed with NH4Cl (8.4 g/L) and cell viability determined by trypan blue exclusion. Lymphocyte subsets were determined by FACScan flow cytometry (Becton Dickinson, San Jose, Calif.) immediately after cell preparation. Isolated PBMC were resuspended to 1×10^7 cells/mL phosphate buffered saline (PBS) supplemented with 2% gamma globulin-free serum, 5% goat serum and 0.2 g/L sodium azide (Baker, Phillipsburg, N.J.). For immunofluorescence analysis, 5×10^5 cells were incubated for 30 minutes on ice with a previously determined optimal concentration of mouse anti-cat primary monoclonal antibody. The antibodies were specific for the following lymphocyte subsets: total T cells (anti-CD3), T-helper cells (anti-CD4), T cytotoxic/suppressor cells (anti-CD8), lymphocytes expressing major histocompatibility complex (MHC) class II antigens (anti-MHC class II), and B cells (anti-CD21). Cells were then washed three times and incubated with a secondary antibody, fluorescein isothiocyanate (FITC)-conjugated goat F(ab′)2 anti-mouse IgG (H+L) (Caltag, Burlingame, Calif.) for 30 minutes on ice to visualize the bound antibody. Stained cells were fixed in 4% paraformaldehyde in preparation for acquisition. Appropriate negative controls were included to correct the level of background fluorescence. Fluorescence analysis was performed on lymphocytes gated by forward and side scatter. Data were expressed as a percentage of positive-staining cells corrected for cells stained nonspecifically with the secondary antibody.

IgG = test: Serum IgG by single radial immunodiffusion, cats; type: in vivo, Tabby cats
Method: Serum IgG concentration was determined by single radial immunodiffusion (SRID). Goat antiserum to cat IgG (15%, whole molecule) (Sigma, St. Louis, Mo.) was incorporated into agarose (10 g/L in PBS; Sigma, St. Louis, Mo.). The loading volume for the test serum and standard was 5 μL and the plates were incubated for 24 hours in a humidified chamber. Ring diameters were measured using a SRID reader (Transidyne General Corp., Ann Arbor, Mich.).

[5] = Stability of lutein in prepared cat food; type: physicochemical; details: diets mixed weekly, stored at −20° C. in sealed containers under nitrogen gas, analyzed periodically
Method: as §1

[6] = system: transplantable murine mammary tumor cell line; details: mice, dietary lutein; cited from earlier work

CC1=C[C@H](O)CC(C)(C)[C@H]1/C=C/C(C)=C/C=C/C(C)=C/C=C/C=C(C)/C=C/C=C(C)/C=C/C1=C(C)C[C@@H](O)CC1(C)C [lutein]
Spontaneous proliferation by unstimulated PBMC ([1]; dogs): did not significantly influence | PWM-stimulated PBMC proliferative response ([1]; dogs fed 10 mg lutein, week 8): higher | Con A-stimulated PBMC proliferation ([1]; dogs fed 10 mg lutein, weeks 8 and 12, 5 μg/mL Con A): higher | PHA-stimulated PBMC proliferative response vs unsupplemented ([1]; dogs fed 20 mg lutein, week 8, P<0.01): enhanced | PWM-stimulated PBMC proliferation vs unsupplemented controls ([1]; dogs fed 20 mg lutein, week 8 and 12, both concentrations of PWM): significantly higher | PHA-stimulated PBMC proliferative response vs unsupplemented ([1]; dogs fed 20 mg lutein, week 12, 2 and 10 μg/mL PHA, P<0.01): enhanced | Con A-stimulated PBMC proliferation ([1]; dogs fed 20 mg lutein, weeks 8 and 12, both concentrations of Con A): higher | PHA-stimulated PBMC proliferation ([1]; dogs fed 5 and 10 mg lutein, week 8, 10 μg/ml PHA): higher | PHA-stimulated PBMC response ([1]; dogs, weeks 0 and 4): no significant effect | PWM-stimulated PBMC proliferation ([1]; dogs, weeks 0 and 4): no significant treatment difference | Food intake among treatments [2]: not significantly different | Body weight average ([2]; across all diets and periods): 1.41 ± 0.04 kg | Average daily food intake ([2]; across the study period): 83.2 g | Effect on changes in body weight ([2]; during the experimental period): did not significantly affect | Plasma lutein [3]: increased in a dose-dependent manner | Total number of T cells (CD3) ([4]; cats): did not influence significantly | Percentage of CD21+ B cells ([4]; cats fed 10 mg lutein, week 12): significantly elevated | Percentage of CD8+ T cytotoxic cells ([4]; cats, any of the time periods): not influenced significantly | Percentage of MHC class II+ cells ([4]; cats, any of the time periods): not influenced significantly | Ratio of CD4:CD8 ([4]; cats, any of the time periods): not influenced significantly | Plasma IgG vs unsupplemented animals (IgG; cats fed 10 mg lutein, week 12): significantly higher | Concentrations of plasma IgG (IgG; cats fed 1 or 10 mg lutein, week 8): significantly higher | Destruction of lutein in prepared food [5]: no significant destruction | Mammary tumor incidence [6]: decreases | Tumor growth [6]: decreases | Tumor latency [6]: shortened
